Values after ≈ are worked out from the molar mass of the structure shown. Non-standard residues stand in square brackets, D forms with d. Residues, ends and D or L forms follow the SMILES beside them. Dip = N[C@H](C(=O)O)C(c1ccccc1)c1ccccc1
What was measured:
Assay in all cases: microbe, parasite or virus in culture
[1] = test system: MRSA (ATCC BAA-1556); format: cell-based, Methicillin-Resistant Staphylococcus aureus
Method: (§1) The antibacterial activity of all ten synthesized linear and cyclic peptides was evaluated against MRSA (ATCC BAA-1556), S. aureus (ATCC 29213), E. faecium (ATCC 700221), S. pneumoniae (ATCC 51938), E. faecalis (ATCC 29212), B. subtilis (ATCC-6633), K. pneumoniae (ATCC BAA-1705), P. aeruginosa (ATCC 27883), and E. coli (ATCC 25922). Meropenem and daptomycin were used as positive controls for this study. Certain peptides are marked as “NT” (not tested) against specific bacterial strains based on initial screening data. […] The MIC was determined by micro-broth dilution protocol, where the minimal concentrations were determined to be in wells with no visible bacterial growth.
(§2) All bacterial experiments were carried out in a laminar flow hood (Labconco, Kansas City, MO, USA). The bacterial strains were cultured following the guidelines set by the Clinical Laboratory Standards Institute (CLSI). Antibacterial assays were performed using a standard microtiter dilution method as described in previous studies. The minimum inhibitory concentration (MIC) refers to the lowest peptide concentration that inhibits bacterial growth in wells with no visible bacterial growth. MIC was determined by micro-broth dilution. Bacteria were cultured overnight in 6 mL of Luria Broth (LB). A stock solution of the peptide was prepared in water and DMSO, and a test compound solution with a concentration of 256 µg/mL was made in LB. Meropenem, with a solubility of 8 mg/mL, was prepared as a stock solution at 4 mg/500 µL. An aliquot of the overnight bacteria culture was diluted in normal saline (NS, 1 mL) until achieving a 0.5 McFarland turbidity (1.5 × 10^8 bacterial cell CFU/mL). A 0.5 McFarland compared solution (60 µL) was added to Mueller Hinton Broth (MH) 8940 µL to generate a 1/150 dilution. A 200 µL test compound solution was added to the first well of a 96-well plate, and the remaining wells (2–12) were filled with 100 µL of MH media using a multi-channel pipette from a sterile reservoir. A concentration of […] of the tested peptides was prepared from a stock solution of the samples for testing in Muller−Hinton broth MH media. Peptides stock solution was dissolved in 5% DMSO in water, and the final concentration of DMSO in the first well of assay plate was 2.5% DMSO/H2O and diluted across the assay plate.
(§3) A 100 µL sample from well 1 was pipetted into well 2, and the solution was mixed thoroughly by pipetting up and down. Next, 100 µL was transferred from well 2 to well 3, followed by thorough mixing. This 2-fold serial dilution process continued through well 11, with no additions made to well 12. The final 100 µL from well 11 was discarded. After completing the serial dilution, each well (1–12) contained 100 µL of solution. The bacterial culture in MH media was vortexed and transferred to a sterile reservoir, from which 100 µL was added to each well using a 12-channel pipette. (Note: The dilutions were further diluted upon adding the bacterial solution; for example, the concentration in well 1 started at […] after the addition of the bacterial culture.) The plates were incubated overnight at 37 °C for 24 h. All experiments were performed in triplicate and repeated twice, with controls consisting of bacteria in MH media and positive controls of daptomycin or meropenem.

[2] = test system: K. pneumoniae (ATCC BAA-1705); format: cell-based, Klebsiella pneumoniae
Method: as §1, §2, §3

[3] = test system: E. faecium (ATCC 700221); format: cell-based, Enterococcus faecium
Method: as §1, §2, §3

[4] = test system: S. pneumoniae (ATCC 51938); format: cell-based, Streptococcus pneumoniae
Method: as §1, §2, §3

[5] = test system: E. faecalis (ATCC 29212); format: cell-based, Enterococcus faecalis
Method: as §1, §2, §3

[6] = test system: E. coli (ATCC 25922); format: cell-based, Escherichia coli
Method: as §1, §2, §3

[7] = test system: C. parapsilosis (ATCC 22019); format: cell-based, Candida parapsilosis; settings: ATCC 22019, 24 h
Method: (§4) The antifungal activity of all ten synthesized linear and cyclic peptides was evaluated against C. albicans (ATCC 60193), C. parapsilosis (ATCC 22019), and A. fumigatus (AF-293). Fluconazole and amphotericin B were used as positive controls for this study. The MIC was determined at concentrations in wells with no visible fungal growth.
(§5) In this study, C. albicans and C. parapsilosis were cultured on Yeast Peptone Dextrose (YPD) agar containing 1% w/v yeast extract, 2% w/v peptone, 2% w/v D-glucose, and 1.5% agar. A single colony from the agar was selected and cultured in Tryptone soy broth supplemented with 0.1% D-glucose, then incubated for 24 h at 37 °C. The cells were washed twice with PBS by centrifugation at 2000 RPM for 5 min. The pellet was resuspended in 5 mL of PBS, diluted in RPMI 1640 with L-glutamine, supplemented with 2% D-glucose, and the pH adjusted using HEPES buffer. The suspension was then incubated for 50 min at 35 °C to achieve a final cell concentration of 10^6 cells/mL.
(§6) Peptide concentrations of 50, 25, 12.5, 6.25, and 3.1 μg/mL were tested in triplicate and repeated twice. Each well of a 96-well plate was inoculated with the prepared inoculum suspension, which was diluted with RPMI media to a final volume of 200 μL per well. The control well received the same inoculum without any compound. The plates were incubated for 24 h at 37 °C. Fungal and microbial growth were visually observed in the control wells, and the minimum inhibitory concentration (MIC) was determined as the lowest concentration at which no growth was detected in the wells. Amphotericin B was used as a standard antifungal drug.

[8] = test system: P. aeruginosa (ATCC 27883); format: cell-based, Pseudomonas aeruginosa
Method: as §1, §2, §3

[9] = test system: S. aureus (ATCC 29213); format: cell-based, Staphylococcus aureus
Method: as §1, §2, §3

[10] = test system: C. albicans (ATCC 60193); format: cell-based, Candida albicans; settings: ATCC 60193, 24 h
Method: as §4, §5, §6

[11] = test system: B. subtilis (ATCC-6633); format: cell-based, Bacillus subtilis
Method: as §1, §2, §3

| Structure (SMILES) | MIC ([1]; ATCC BAA-1556, 24 h) [µM] | MIC ([2]; ATCC BAA-1705, 24 h) [µM] | MIC ([3]; ATCC 700221, 24 h) [µM] | MIC ([4]; ATCC 51938, 24 h) [µM] | MIC ([5]; ATCC 29212, 24 h) [µM] | MIC ([6]; ATCC 25922, 24 h) [µM] | MIC [7] [µM] | MIC ([8]; ATCC 27883, 24 h) [µM] | MIC ([9]; ATCC 29213, 24 h) [µM] | MIC [10] [µM] | MIC ([11]; ATCC-6633, 24 h) [µM] | MIC ([1]; Staphylococcus aureus, micro-broth dilution, Mueller Hinton broth, 37 °C, 24 h, no visible growth, triplicate, repeated twice) [µM] | MIC ([2]; Klebsiella pneumoniae, ATCCBAA1705, micro-broth dilution, Mueller Hinton broth, 37 °C, 24 h, no visible growth, triplicate, repeated twice, NA = Not active) [µM] | MIC ([3]; Enterococcus faecium, ATCC700221, micro-broth dilution, Mueller Hinton broth, 37 °C, 24 h, no visible growth, triplicate, repeated twice) [µM] | MIC ([4]; Streptococcus pneumoniae, ATCC51938, micro-broth dilution, Mueller Hinton broth, 37 °C, 24 h, no visible growth, triplicate, repeated twice) [µM] | MIC ([5]; Enterococcus faecalis, ATCC29212, micro-broth dilution, Mueller Hinton broth, 37 °C, 24 h, no visible growth, triplicate, repeated twice) [µM] | MIC ([6]; Escherichia coli, ATCC25922, micro-broth dilution, Mueller Hinton broth, 37 °C, 24 h, no visible growth, triplicate, repeated twice, NA = Not active) [µM] | MIC ([8]; Pseudomonas aeruginosa, ATCC27883, micro-broth dilution, Mueller Hinton broth, 37 °C, 24 h, no visible growth, triplicate, repeated twice, NA = Not active) [µM] | MIC ([9]; Staphylococcus aureus, ATCC29213, micro-broth dilution, Mueller Hinton broth, 37 °C, 24 h, no visible growth, triplicate, repeated twice) [µM] | MIC ([11]; Bacillus subtilis, ATCC6633, micro-broth dilution, Mueller Hinton broth, 37 °C, 24 h, no visible growth, triplicate, repeated twice) [µM] |
| --- | --- | --- | --- | --- | --- | --- | --- | --- | --- | --- | --- | --- | --- | --- | --- | --- | --- | --- | --- | --- |
| N=C(N)NCCC[C@H](NC(=O)[C@@H](NC(=O)[C@H](CCCNC(=N)N)NC(=O)[C@@H](NC(=O)[C@H](CCCNC(=N)N)NC(=O)[C@H](Cc1c[nH]c2ccccc12)NC(=O)[C@H](CCCNC(=N)N)NC(=O)[C@H](Cc1c[nH]c2ccccc12)NC(=O)[C@H](CCCNC(=N)N)NC(=O)[C@@H](N)Cc1c[nH]c2ccccc12)C(c1ccccc1)c1ccccc1)C(c1ccccc1)c1ccccc1)C(=O)O [((DipR)2(WR)3)] (H-WRWRWR[Dip]R[Dip]R-OH) | 3.1 (≈ 5.59 µg/mL) | 12.5 (≈ 22.6 µg/mL) | 3.1 (≈ 5.59 µg/mL) | 0.78 (≈ 1.41 µg/mL) | 6.3 (≈ 11.4 µg/mL) | 6.3 (≈ 11.4 µg/mL) | 6.9 (≈ 12.4 µg/mL) | 12.5 (≈ 22.6 µg/mL) | 3.1 (≈ 5.59 µg/mL) | 3.5 (≈ 6.31 µg/mL) | 1.6 (≈ 2.89 µg/mL) | – | – | – | – | – | – | – | – | – |
| N=C(N)NCCC[C@H](NC(=O)[C@@H](NC(=O)[C@H](CCCNC(=N)N)NC(=O)[C@@H](NC(=O)[C@H](CCCNC(=N)N)NC(=O)[C@@H](NC(=O)[C@H](CCCNC(=N)N)NC(=O)[C@H](Cc1c[nH]c2ccccc12)NC(=O)[C@H](CCCNC(=N)N)NC(=O)[C@@H](N)Cc1c[nH]c2ccccc12)C(c1ccccc1)c1ccccc1)C(c1ccccc1)c1ccccc1)C(c1ccccc1)c1ccccc1)C(=O)O [((DipR)3(WR)2)] (H-WRWR[Dip]R[Dip]R[Dip]R-OH) | 3.1 (≈ 5.71 µg/mL) | 25 (≈ 46 µg/mL) | 3.1 (≈ 5.71 µg/mL) | 0.78 (≈ 1.44 µg/mL) | 3.1 (≈ 5.71 µg/mL) | 12.5 (≈ 23 µg/mL) | 6.8 (≈ 12.5 µg/mL) | 25 (≈ 46 µg/mL) | 3.1 (≈ 5.71 µg/mL) | 3.4 (≈ 6.26 µg/mL) | 3.1 (≈ 5.71 µg/mL) | – | – | – | – | – | – | – | – | – |
| N=C(N)NCCC[C@H](NC(=O)[C@@H](NC(=O)[C@H](CCCNC(=N)N)NC(=O)[C@@H](NC(=O)[C@H](CCCNC(=N)N)NC(=O)[C@@H](NC(=O)[C@H](CCCNC(=N)N)NC(=O)[C@@H](NC(=O)[C@H](CCCNC(=N)N)NC(=O)[C@@H](N)Cc1c[nH]c2ccccc12)C(c1ccccc1)c1ccccc1)C(c1ccccc1)c1ccccc1)C(c1ccccc1)c1ccccc1)C(c1ccccc1)c1ccccc1)C(=O)O [((DipR)4(WR))] (H-WR[Dip]R[Dip]R[Dip]R[Dip]R-OH) | 3.1 (≈ 5.82 µg/mL) | 25 (≈ 47 µg/mL) | 1.6 (≈ 3.01 µg/mL) | 0.78 (≈ 1.47 µg/mL) | 1.6 (≈ 3.01 µg/mL) | 12.5 (≈ 23.5 µg/mL) | 6.6 (≈ 12.4 µg/mL) | 25 (≈ 47 µg/mL) | 3.1 (≈ 5.82 µg/mL) | 6.6 (≈ 12.4 µg/mL) | 12.5 (≈ 23.5 µg/mL) | – | – | – | – | – | – | – | – | – |
| CCCCCCCCCC(=O)N[C@@H](Cc1c[nH]c2ccccc12)C(=O)N[C@H](CC(N)=O)C(=O)N[C@@H](CC(=O)O)C(=O)N[C@@H]1C(=O)NCC(=O)N[C@@H](CCCN)C(=O)N[C@@H](CC(=O)O)C(=O)N[C@H](C)C(=O)N[C@@H](CC(=O)O)C(=O)NCC(=O)N[C@H](CO)C(=O)N[C@@H]([C@H](C)CC(=O)O)C(=O)N[C@@H](CC(=O)c2ccccc2N)C(=O)O[C@@H]1C [Daptomycin, reference compound] | 1.2 (≈ 1.94 µg/mL) | – | 1.2 (≈ 1.94 µg/mL) | 4.9 (≈ 7.94 µg/mL) | 9.87 (≈ 16 µg/mL) | – | – | – | 0.62 (≈ 1 µg/mL) | – | 0.3 (≈ 0.486 µg/mL) | – | – | – | – | – | – | – | – | – |
| C[C@@H](O)[C@H]1C(=O)N2C(C(=O)O)=C(S[C@@H]3CN[C@H](C(=O)N(C)C)C3)[C@H](C)[C@H]12 [Meropenem, reference compound] | – | – | – | – | – | – | – | – | – | – | – | 5.2 (≈ 1.99 µg/mL) | 42 (≈ 16.1 µg/mL) | 83 (≈ 31.8 µg/mL) | 0.6 (≈ 0.23 µg/mL) | 5.2 (≈ 1.99 µg/mL) | 2.6 (≈ 0.997 µg/mL) | 2.6 (≈ 0.997 µg/mL) | 0.5 (≈ 0.192 µg/mL) | 0.6 (≈ 0.23 µg/mL) |

Source: paper PMC11763264, “Antibacterial and Antifungal Activities of Linear and Cyclic Peptides Containing Arginine, Tryptophan, and Diphenylalanine” (Antibiotics, 2025)
